Measured values from US20250243190A1, “NEW DEUTERATED RORGAMMA/RORGAMMAT INVERSE AGONISTS” (IMMUNIC AG, priority 2022, published 2025).

What was measured:
RORγt = molecular target: T1, RORγt (Homo sapiens, UniProt P51449); assay: Indigo Biosciences Human RAR-related Orphan Receptor, Gamma Reporter Assay (in vitro inhibition of RORγt); format: cell-based; details: RORγt reporter cells, luciferase readout, 22-24 h incubation; read-out: IC50 range
T1 sequence (P51449 269-508 limits assumed): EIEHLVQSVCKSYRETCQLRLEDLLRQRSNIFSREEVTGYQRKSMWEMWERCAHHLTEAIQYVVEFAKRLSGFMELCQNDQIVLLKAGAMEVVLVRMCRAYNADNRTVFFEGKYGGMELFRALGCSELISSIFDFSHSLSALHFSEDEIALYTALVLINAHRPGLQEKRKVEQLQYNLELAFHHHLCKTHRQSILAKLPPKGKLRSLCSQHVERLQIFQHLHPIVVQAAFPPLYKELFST
Description: The in vitro inhibition of RORγt was measured using Indigo Biosciences Human RAR-related Orphan Receptor, Gamma Reporter Assay System (Product #IB304001-32) as described in the technical manual. In brief, 200 μL of Reporter Cells is dispensed into wells of the assay plate and preincubated for 4-6 h. Following the pre-incubation period, culture media are discarded and 200 µL/well of the prepared 1×-concentration treatment media are added. Following 22-24 h incubation, treatment media are discarded and Luciferase Detection Reagent is added. The intensity of light emission (in units of ‘Relative Light Units’; RLU) from each assay well is quantified using a plate-reading luminometer. Average values of RLU were determined for each treatment concentration. Non-linear regression analyses were performed and IC50 values determined using GraphPad Prism software. Provided inverse-agonists ursolic acid served as positive control.

SARS-CoV-2 = assay: Antiviral activity on SARS-CoV-2, viral replication (YFP) assay; format: cell-based; details: Severe acute respiratory syndrome coronavirus 2, read-out: EC50 range
Source text: (§1) The assay for viral replication (YFP) and the cell viability assay has been described in general in Pathogens 2021; 10:1076 and applied to compounds of the present invention furnished the following results: […]

[1] = Cell viability assay accompanying the SARS-CoV-2 assay; format: cell-based; details: cell viability assay of the SARS-CoV-2 test
Source text: as §1

[2] = Mouse pharmacokinetics, oral or intravenous cassette dosing; format: in vivo, mice (C57BL/6J); details: C57BL/6J, whole blood, 3 female mice, 5 mg/kg oral cassette, sampling 0.25-8 h
Description: The pharmacokinetics of the compounds of the present invention was evaluated in 3 male and 3 female mice (C57BL/6J, 8 week old) after oral or intravenous cassette dosing to assess the oral bioavailability. Dose was 5 mg/kg (oral) and 1 mg/kg (intravenous), application volume was 5 mL/kg (oral) and 0.5 mL/kg (intravenous), vehicle was 5% solutol, 95% NaCl solution (at 0.9% saline concentration) for oral and 5% solutol, 5% Ethanol, 90% NaCl solution (at 0.9% saline concentration) for intravenous. At each designated time point (0.25, 0.5, 1, 2, 4, 8 and 24 h after dosing), 20 μL whole blood were collected from the tail vein into Li-heparin tubes, frozen on dry ice within 1-2 minutes of sampling and stored at −20° C. until processed for LC-MS analysis. The obtained data is as follows:
(§2) The pharmacokinetics of additional compounds of the present invention was evaluated in 3 female mice (C57BL/6J, 8 week old) after oral cassette dosing. Dose was 5 mg/kg, application volume was 5 mL/kg, vehicle was 5% solutol, 95% NaCl solution (at 0.9% saline concentration). At each designated time point (0.5, 1, 2, 4, 8 and 24 h after dosing), 20 μL whole blood were collected from the tail vein into Li-heparin tubes, frozen on dry ice within 1-2 minutes of sampling and stored at −20° C. until processed for LC-MS analysis. The obtained data is as follows:
as §2, with “(0.25, 0.5,” for “(0.5,”, “4 and” for “4,”, “8” for “8 and 24”, “analysis.” for “analysis. The obtained data is as follows:”

Compound | IC50 (RORγt) | other results
[2H]C([2H])(OC1COC1)c1c(-c2c(F)cccc2Cl)noc1-c1cnn(-c2cccc(Cl)c2)c1C(F)(F)F [110/2] | 10 to 100 nM | 
[2H]C([2H])(OC1CC1)c1c(-c2c(F)cccc2Cl)noc1-c1cnn(-c2cc(F)cc(Cl)c2)c1C(F)(F)F [111/3] | 10 to 100 nM | 
[2H][C@]1(n2ncc(-c3onc(-c4c(F)cccc4Cl)c3-c3ncccn3)c2C(F)(F)F)C[C@@](C)(O)C1 [Example 2-2, (1s,3s)-3-(4-(3-(2-chloro-6-fluorophenyl)-4-(pyrimidin-2-yl)isoxazol-5-yl)-5-(trifluoromethyl)-1H-pyrazol-1-yl)-1-methylcyclobutan-3-d-1-ol] | 10 to 100 nM | 
[2H]C([2H])(CC(C)(C)O)n1ncc(-c2onc(-c3c(F)cccc3Cl)c2-c2nccs2)c1C(F)(F)F [Example 3-1] | < 10 nM | EC50 (SARS-CoV-2): < 100 nM; CC50 [1]: 17000 nM
[2H][C@]1(n2ncc(-c3onc(-c4c(F)cccc4Cl)c3-c3ncccn3)c2C(F)F)C[C@@](C)(O)C1 [4-2/1] | 10 to 100 nM | 
[2H]C([2H])(OC(F)(F)F)c1c(-c2c(F)cccc2Cl)noc1-c1cnn(-c2cccc(Cl)c2)c1C(F)(F)F [Example 109, 3-(2-Chloro-6-fluorophenyl)-5-(1-(3-chlorophenyl)-5-(trifluoromethyl)-1H-pyrazol-4-yl)-4-((trifluoromethoxy)methyl-d2)isoxazole] | 10 to 100 nM | 
[2H]C([2H])([C@H](C)O)n1ncc(-c2onc(-c3c(F)cccc3Cl)c2-c2ncccn2)c1C(F)(F)F [Example 1, (S)-1-(4-(3-(2-Chloro-6-fluorophenyl)-4-(pyrimidin-2-yl)isoxazol-5-yl)-5-(trifluoromethyl)-1H-pyrazol-1-yl)propan-1,1-d2-2-ol] | 10 to 100 nM | EC50 (SARS-CoV-2): < 100 nM; CC50 [1]: 22000 nM
[2H]C([2H])(OC(C)C)c1c(-c2c(F)cc(F)cc2Cl)noc1-c1cnn(-c2cccc(Cl)c2)c1C(F)(F)F [111/2] | 100 to 1000 nM | 
[2H]c1cc([2H])c(-n2ncc(-c3onc(-c4c(F)cccc4Cl)c3C(=O)OC)c2C(F)(F)F)c([2H])c1Cl [Example 105, Methyl 3-(2-chloro-6-fluorophenyl)-5-(1-(3-chlorophenyl-2,4,6-d3)-5-(trifluoro-methyl)-1H-pyrazol-4-yl)isoxazole-4-carboxylate] | < 10 nM | 
[2H]C([2H])(OC(C)C)c1c(-c2c(F)cccc2Cl)noc1-c1cnn(-c2cc(F)cc(Cl)c2)c1C(F)(F)F [111/4] | 10 to 100 nM | 
[2H]C([2H])(OC([2H])([2H])C([2H])([2H])[2H])c1c(-c2c(F)cccc2Cl)noc1-c1cnn(-c2cccc(Cl)c2)c1C(F)(F)F [Example 110/1] | 10 to 100 nM | EC50 (SARS-CoV-2): < 100 nM; CC50 [1]: > 100000 nM
[2H]C([2H])(CC(C)(C)O)n1ncc(-c2onc(-c3c(F)cccc3Cl)c2-c2ncccn2)c1C(F)F [Example 4, 4-(4-(3-(2-Chloro-6-fluorophenyl)-4-(pyrimidin-2-yl)isoxazol-5-yl)-5-(difluoromethyl)-1H-pyrazol-1-yl)-2-methylbutan-4,4-d2-2-ol] | 10 to 100 nM | EC50 (SARS-CoV-2): < 100 nM; CC50 [1]: > 100000 nM
[2H]c1nc(-c2c(-c3c(F)cccc3Cl)noc2-c2cnn(-c3cccc(Cl)c3)c2C(F)(F)F)nc([2H])c1[2H] [Example 103, 3-(2-Chloro-6-fluorophenyl)-5-(1-(3-chlorophenyl)-5-(trifluoromethyl)-1H-pyrazol-4-yl)-4-(pyrimidin-2-yl-d3)isoxazole] | 10 to 100 nM | 
[2H]c1nc(-c2c(-c3c(F)cccc3Cl)noc2-c2cnn(C([2H])([2H])CC(C)(C)O)c2C(F)(F)F)nc([2H])c1[2H] [Example 3-3] | 10 to 100 nM | 
[2H][C@]1(n2ncc(-c3onc(-c4c(F)cccc4Cl)c3-c3ncccn3)c2C(F)(F)F)C[C@](C)(O)C1 [Example 2-1, (1r,3r)-3-(4-(3-(2-Chloro-6-fluorophenyl)-4-(pyrimidin-2-yl)isoxazol-5-yl)-5-(trifluoro-methyl)-1H-pyrazol-1-yl)-1-methylcyclobutan-3-d-1-ol] | 100 to 1000 nM | 
[2H]C([2H])([2H])c1c(-c2onc(-c3c(F)cccc3Cl)c2-c2ncccn2)cnn1C([2H])([2H])CC(C)(C)O [Example 10/1] | 100 to 1000 nM | EC50 (SARS-CoV-2): 100 to 1000 nM; CC50 [1]: > 100000 nM
[2H]C([2H])(CC(C)(C)O)n1ncc(-c2onc(-c3c(F)cccc3Cl)c2-c2ncccn2)c1COC [10/2] | 100 to 1000 nM | EC50 (SARS-CoV-2): 1000 to 50000 nM; CC50 [1]: > 100000 nM
[2H]C([2H])(CC(C)(C)O)n1ncc(-c2onc(-c3c(F)cc(OC)cc3Cl)c2-c2ncccn2)c1C(F)(F)F [Example 5, 4-(4-(3-(2-Chloro-6-fluoro-4-methoxyphenyl)-4-(pyrimidin-2-yl)isoxazol-5-yl)-5-(trifluoro-methyl)-1H-pyrazol-1-yl)-2-methylbutan-4,4-d2-2-ol] | 100 to 1000 nM | EC50 (SARS-CoV-2): 100 to 1000 nM; CC50 [1]: > 100000 nM
[2H]c1c([2H])c(F)c(-c2noc(-c3cnn(C([2H])([2H])CC(C)(C)O)c3C(F)(F)F)c2-c2ncccn2)c(Cl)c1[2H] [5/2] | < 10 nM | 
[2H][C@]1(n2ncc(-c3onc(-c4ccccc4Cl)c3-c3ncccn3)c2C(F)(F)F)C[C@@](C)(O)C1 [2-2/1] | 10 to 100 nM | 
[2H]c1nc(-c2c(-c3c(F)cccc3Cl)noc2-c2cnn(C([2H])([2H])CC(C)(C)O)c2C(F)(F)F)sc1[2H] [Example 3-2] | < 10 nM | 
[2H]C([2H])([2H])C([2H])([2H])OC(=O)c1c(-c2c(F)cccc2Cl)noc1-c1cnn(-c2cccc(Cl)c2)c1C(F)(F)F [Example 100/1] | < 10 nM | 
[2H]C([2H])(OC1CC1)c1c(-c2c(F)cc(F)cc2Cl)noc1-c1cnn(-c2cccc(Cl)c2)c1C(F)(F)F [Example 111/1] | 100 to 1000 nM | 
[2H][C@]1(n2ncc(-c3onc(-c4ccccc4Cl)c3-c3ncccn3)c2C(F)(F)F)C[C@](C)(O)C1 [Example 2-1/1] | 100 to 1000 nM | 
[2H]C([2H])(OCC)c1c(-c2c(F)cccc2Cl)noc1-c1cnn(-c2cccc(Cl)c2)c1C(F)(F)F [110/3] | 10 to 100 nM | 
[2H][C@]1(n2ncc(-c3onc(-c4c(F)cccc4Cl)c3-c3ncccn3)c2C(F)F)C[C@](C)(O)C1 [Example 4-1/1] | 100 to 1000 nM | 
[2H]c1cc([2H])c(-n2ncc(-c3onc(-c4c(F)cccc4Cl)c3-c3nccs3)c2C(F)(F)F)c([2H])c1Cl [Example 106, 3-(2-Chloro-6-fluorophenyl)-5-(1-(3-chlorophenyl-2,4,6-d3)-5-(trifluoromethyl)-1H-pyrazol-4-yl)-4-(thiazol-2-yl)isoxazole] | < 10 nM | 
[2H]c1c([2H])c(F)c(-c2noc(-c3cnn(-c4cccc(Cl)c4)c3C(F)(F)F)c2C(=O)OC)c(Cl)c1[2H] [Example 104, Methyl 3-(2-chloro-6-fluorophenyl-3,4,5-d3)-5-(1-(3-chlorophenyl)-5-(trifluoro-methyl)-1H-pyrazol-4-yl)isoxazole-4-carboxylate] | 10 to 100 nM | 
[2H]c1nc(-c2c(-c3c(F)cccc3Cl)noc2-c2cnn(-c3cccc(Cl)c3)c2C(F)(F)F)sc1[2H] [Example 107, 3-(2-Chloro-6-fluorophenyl)-5-(1-(3-chlorophenyl)-5-(trifluoromethyl)-1H-pyrazol-4-yl)-4-(thiazol-2-yl-d2)isoxazole] | 10 to 100 nM | half-life [2]: 1.6 h; AUC(0-t) ([2]; read-out: AUC0-8 h): 871 ng·h/mL
